Laboratory results from ChEMBL document CHEMBL1909294, “Translating clinical findings into knowledge in drug safety evaluation--drug induced liver injury prediction system (DILIps)” (PLoS Comput Biol, 2011).

Tests used:
Hepatotoxicity [1] = tested on: Hepatotoxicity;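 as to HepSE bilirubinemia: bilirubinemia hepatic side effect score drawn from the DILIps training data, a prediction system for drug-induced liver injury; call rule not given here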;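 as to HepSE elevated liver function tests: hepatic side effect score for raised liver function tests, as recorded in the DILIps training set used for predicting drug-induced liver injury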; as to HepSE hepatic failure: call rule not given here;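 as to HepSE hepatomegaly: hepatic side effect score for hepatomegaly, taken from the training set of the DILIps drug-induced liver injury prediction system; call rule not given here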;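 as to HepSE jaundice: Jaundice-related hepatic side-effect score drawn from the training data of the DILIps (drug-induced liver injury prediction system); call rule not given here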;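 as to HepSE liver function tests abnormal: hepatic side effect score taken from the DILIps (drug-induced liver injury prediction system) training data, here covering abnormal liver function test findings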
Hepatotoxicity [2] = tested on: Hepatotoxicity; remark: listed apart in the source;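 as to HepSE bilirubinemia: bilirubinemia hepatic side effect score drawn from the DILIps training data, a prediction system for drug-induced liver injury; call rule not given here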;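 as to HepSE elevated liver function tests: hepatic side effect score for raised liver function tests, as recorded in the DILIps training set used for predicting drug-induced liver injury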; as to HepSE hepatic failure: call rule not given here;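 as to HepSE hepatomegaly: hepatic side effect score for hepatomegaly, taken from the training set of the DILIps drug-induced liver injury prediction system; call rule not given here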;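 as to HepSE jaundice: Jaundice-related hepatic side-effect score drawn from the training data of the DILIps (drug-induced liver injury prediction system); call rule not given here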;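 as to HepSE liver function tests abnormal: hepatic side effect score taken from the DILIps (drug-induced liver injury prediction system) training data, here covering abnormal liver function test findings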
Hepatotoxicity [3] = tested on: Hepatotoxicity; remark: listed apart in the source;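 as to HepSE bilirubinemia: bilirubinemia hepatic side effect score drawn from the DILIps training data, a prediction system for drug-induced liver injury; call rule not given here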;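 as to HepSE elevated liver function tests: hepatic side effect score for raised liver function tests, as recorded in the DILIps training set used for predicting drug-induced liver injury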; as to HepSE hepatic failure: call rule not given here;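 as to HepSE hepatomegaly: hepatic side effect score for hepatomegaly, taken from the training set of the DILIps drug-induced liver injury prediction system; call rule not given here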;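 as to HepSE jaundice: Jaundice-related hepatic side-effect score drawn from the training data of the DILIps (drug-induced liver injury prediction system); call rule not given here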;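 as to HepSE liver function tests abnormal: hepatic side effect score taken from the DILIps (drug-induced liver injury prediction system) training data, here covering abnormal liver function test findings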
Hepatotoxicity [4] = tested on: Hepatotoxicity; remark: listed apart in the source;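 as to HepSE bilirubinemia: bilirubinemia hepatic side effect score drawn from the DILIps training data, a prediction system for drug-induced liver injury; call rule not given here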;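 as to HepSE elevated liver function tests: hepatic side effect score for raised liver function tests, as recorded in the DILIps training set used for predicting drug-induced liver injury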; as to HepSE hepatic failure: call rule not given here;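 as to HepSE hepatomegaly: hepatic side effect score for hepatomegaly, taken from the training set of the DILIps drug-induced liver injury prediction system; call rule not given here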;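 as to HepSE jaundice: Jaundice-related hepatic side-effect score drawn from the training data of the DILIps (drug-induced liver injury prediction system); call rule not given here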;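 as to HepSE liver function tests abnormal: hepatic side effect score taken from the DILIps (drug-induced liver injury prediction system) training data, here covering abnormal liver function test findings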
Hepatotoxicity [5] = tested on: Hepatotoxicity; remark: listed apart in the source; as to HepSE hepatic failure: call rule not given here
Hepatotoxicity [6] = tested on: Hepatotoxicity; remark: listed apart in the source; as to HepSE hepatic failure: call rule not given here
Hepatotoxicity [7] = tested on: Hepatotoxicity; remark: listed apart in the source
Hepatotoxicity [8] = tested on: Hepatotoxicity; remark: listed apart in the source
Hepatotoxicity [9] = tested on: Hepatotoxicity; remark: listed apart in the source
Hepatotoxicity [10] = tested on: Hepatotoxicity; remark: listed apart in the source
Hepatotoxicity [11] = tested on: Hepatotoxicity; remark: listed apart in the source
Hepatotoxicity [12] = tested on: Hepatotoxicity; remark: listed apart in the source
Hepatotoxicity [13] = tested on: Hepatotoxicity; remark: listed apart in the source
Hepatotoxicity [14] = tested on: Hepatotoxicity; remark: listed apart in the source

| Compound | HepSE_hepatomegaly (Hepatotoxicity [1]) | HepSE_elevated liver function tests (Hepatotoxicity [2]) | HepSE_bilirubinemia (Hepatotoxicity [3]) | HepSE_hepatic necrosis (Hepatotoxicity [4]) | HepSE_hepatic failure (Hepatotoxicity [5]) | HepSE_liver function tests abnormal (Hepatotoxicity [6]) | HepSE_hepatitis (Hepatotoxicity [7]) | HepSE_jaundice (Hepatotoxicity [8]) | HepSE_cirrhosis (Hepatotoxicity [9]) | HepSE_Combined Scores (Hepatotoxicity [10]) | HepSE_liver fatty (Hepatotoxicity [11]) | HepSE_cholecystitis (Hepatotoxicity [12]) | HepSE_cholelithiasis (Hepatotoxicity [13]) | HepSE_liver disease (Hepatotoxicity [14]) | also measured |
| --- | --- | --- | --- | --- | --- | --- | --- | --- | --- | --- | --- | --- | --- | --- | --- |
| CCc1nn(CCCN2CCN(c3cccc(Cl)c3)CC2)c(=O)n1CCOc1ccccc1 [NEFAZODONE] | 0 | 0 | 0 | 1 | 0 | 1 | 1 | 0 | 0 | 3 | 0 | 0 | 0 | 0 | – |
| CC1(C)S[C@@H]2[C@H](NC(=O)[C@H](N)c3ccc(O)cc3)C(=O)N2[C@H]1C(=O)O [AMOXICILLIN] | 0 | 0 | 0 | 0 | 0 | 0 | 1 | 1 | 0 | 2 | 0 | 0 | 0 | 0 | – |
| COCc1c(C(C)C)nc(C(C)C)c(/C=C/[C@@H](O)C[C@@H](O)CC(=O)O)c1-c1ccc(F)cc1 [CERIVASTATIN] | 0 | 0 | 0 | 1 | 0 | 0 | 1 | 1 | 1 | 4 | 0 | 0 | 0 | 0 | – |
| CO[C@@]1(NC(=O)Cc2cccs2)C(=O)N2C(C(=O)O)=C(COC(N)=O)CS[C@@H]21 [CEFOXITIN] | 0 | 0 | 0 | 0 | 0 | 0 | 0 | 1 | 0 | 1 | 0 | 0 | 0 | 0 | – |
| [Cl-].[Na+] [SODIUM CHLORIDE] | 0 | 0 | 0 | 0 | 0 | 0 | 0 | 0 | 0 | 0 | 0 | 0 | 0 | 0 | – |
| CC1=C(C(=O)O)N2C(=O)[C@@H](NC(=O)[C@H](N)c3ccc(O)cc3)[C@H]2SC1 [CEFADROXIL] | 0 | 0 | 0 | 0 | 1 | 0 | 0 | 0 | 0 | 1 | 0 | 0 | 0 | 0 | – |
| CC1=C(CC(=O)O)c2cc(F)ccc2/C1=C\c1ccc([S+](C)[O-])cc1 (stereo not drawn) | 0 | 0 | 0 | 0 | 1 | 0 | 1 | 1 | 0 | 4 | 0 | 1 | 0 | 0 | – |
| CC[C@H](C)C[C@H](C)CCCCCCCCC(=O)N[C@H]1C[C@@H](O)[C@@H](NCCN)NC(=O)[C@@H]2[C@@H](O)CCN2C(=O)[C@H]([C@H](O)CCN)NC(=O)[C@H]([C@H](O)[C@@H](O)c2ccc(O)cc2)NC(=O)[C@@H]2C[C@@H](O)CN2C(=O)[C@H]([C@@H](C)O)NC1=O [CASPOFUNGIN] | 1 | 0 | 1 | 1 | 1 | 0 | 0 | 1 | 0 | 5 | 0 | 0 | 0 | 0 | – |
| CCOC(=O)Nc1ccc2c(c1)N(C(=O)CCN1CCOCC1)c1ccccc1S2 [MORICIZINE] | 0 | 0 | 0 | 0 | 0 | 0 | 1 | 1 | 0 | 2 | 0 | 0 | 0 | 0 | – |
| CC(=O)O[C@H]1C(=O)[C@@]2(C)[C@H]([C@H](OC(=O)c3ccccc3)[C@]3(O)C[C@H](OC(=O)[C@H](O)[C@@H](NC(=O)c4ccccc4)c4ccccc4)C(C)=C1C3(C)C)[C@]1(OC(C)=O)CO[C@@H]1C[C@@H]2O [PACLITAXEL] | – | – | – | – | – | – | – | – | – | – | – | – | – | – | HepSE_hepatomegaly (Hepatotoxicity [1]; Liver): 0; HepSE_elevated liver function tests (Hepatotoxicity [2]; Liver): 1; HepSE_bilirubinemia (Hepatotoxicity [3]; Liver): 0; HepSE_hepatic necrosis (Hepatotoxicity [4]; Liver): 1; HepSE_hepatic failure (Hepatotoxicity [5]; Liver): 0; HepSE_liver function tests abnormal (Hepatotoxicity [6]; Liver): 0; HepSE_hepatitis (Hepatotoxicity [7]; Liver): 0; HepSE_jaundice (Hepatotoxicity [8]; Liver): 0; HepSE_cirrhosis (Hepatotoxicity [9]; Liver): 0; HepSE_Combined Scores (Hepatotoxicity [10]; Liver): 2; HepSE_liver fatty (Hepatotoxicity [11]; Liver): 0; HepSE_cholecystitis (Hepatotoxicity [12]; Liver): 0; HepSE_cholelithiasis (Hepatotoxicity [13]; Liver): 0; HepSE_liver disease (Hepatotoxicity [14]; Liver): 0 |
| CN(C)CCC=C1c2ccccc2C=Cc2ccccc21 [CYCLOBENZAPRINE] | – | – | – | – | – | – | – | – | – | – | – | – | – | – | HepSE_hepatomegaly (Hepatotoxicity [1]; Liver): 0; HepSE_elevated liver function tests (Hepatotoxicity [2]; Liver): 0; HepSE_bilirubinemia (Hepatotoxicity [3]; Liver): 0; HepSE_hepatic necrosis (Hepatotoxicity [4]; Liver): 0; HepSE_hepatic failure (Hepatotoxicity [5]; Liver): 0; HepSE_liver function tests abnormal (Hepatotoxicity [6]; Liver): 0; HepSE_hepatitis (Hepatotoxicity [7]; Liver): 1; HepSE_jaundice (Hepatotoxicity [8]; Liver): 1; HepSE_cirrhosis (Hepatotoxicity [9]; Liver): 0; HepSE_Combined Scores (Hepatotoxicity [10]; Liver): 2; HepSE_liver fatty (Hepatotoxicity [11]; Liver): 0; HepSE_cholecystitis (Hepatotoxicity [12]; Liver): 0; HepSE_cholelithiasis (Hepatotoxicity [13]; Liver): 0; HepSE_liver disease (Hepatotoxicity [14]; Liver): 0 |
| Nc1ccc(C(=O)NCC(=O)O)cc1 [AMINOHIPPURIC ACID] | 0 | 0 | 0 | 0 | 0 | 0 | 0 | 0 | 0 | 0 | 0 | 0 | 0 | 0 | – |
